Experimental data published in article PMC7026418, “The kinase polypharmacology landscape of clinical PARP inhibitors” (Scientific Reports, 2020).
Like-named read-outs stand apart in the source and are kept apart here. Values belong to the molecule of their own block, whether it stands above or below them.

What was measured:
Test in all cases: biochemical
Parameters in all cases: DiscoveRx KINOMEscan active site-directed competition binding; percent of control kinase bound to immobilised ligand
GRK3 = biological target: T1, GRK3 (Homo sapiens, UniProt P35626)
T1 sequence (P35626 1-688): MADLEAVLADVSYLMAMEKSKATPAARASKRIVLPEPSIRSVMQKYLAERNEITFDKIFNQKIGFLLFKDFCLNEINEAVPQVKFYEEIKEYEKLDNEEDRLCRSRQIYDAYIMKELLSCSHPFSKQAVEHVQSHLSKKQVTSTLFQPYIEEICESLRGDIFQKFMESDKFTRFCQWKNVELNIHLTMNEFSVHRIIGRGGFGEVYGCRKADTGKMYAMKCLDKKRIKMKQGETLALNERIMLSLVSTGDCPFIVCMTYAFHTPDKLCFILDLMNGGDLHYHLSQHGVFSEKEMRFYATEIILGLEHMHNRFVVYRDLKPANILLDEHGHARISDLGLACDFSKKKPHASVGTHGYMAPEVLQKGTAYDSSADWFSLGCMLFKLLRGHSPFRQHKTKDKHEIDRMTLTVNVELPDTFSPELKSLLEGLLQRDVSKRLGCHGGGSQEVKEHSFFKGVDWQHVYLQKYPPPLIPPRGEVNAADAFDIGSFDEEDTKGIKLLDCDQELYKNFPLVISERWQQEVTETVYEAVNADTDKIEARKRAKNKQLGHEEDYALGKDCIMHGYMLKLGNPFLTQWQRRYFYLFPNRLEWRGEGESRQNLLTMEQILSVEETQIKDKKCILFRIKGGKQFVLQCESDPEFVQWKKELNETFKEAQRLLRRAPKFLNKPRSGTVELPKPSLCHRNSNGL

YES = biological target: T2, YES (Homo sapiens, UniProt P07947)
T2 construct: gene YES1

JNK3 = biological target: T3, JNK3 (Homo sapiens, UniProt P53779)
T3 construct: gene MAPK10

RIPK5 = biological target: T4, RIPK5 (Homo sapiens, UniProt Q6XUX3)
T4 construct: gene DSTYK
T4 sequence (Q6XUX3 1-929): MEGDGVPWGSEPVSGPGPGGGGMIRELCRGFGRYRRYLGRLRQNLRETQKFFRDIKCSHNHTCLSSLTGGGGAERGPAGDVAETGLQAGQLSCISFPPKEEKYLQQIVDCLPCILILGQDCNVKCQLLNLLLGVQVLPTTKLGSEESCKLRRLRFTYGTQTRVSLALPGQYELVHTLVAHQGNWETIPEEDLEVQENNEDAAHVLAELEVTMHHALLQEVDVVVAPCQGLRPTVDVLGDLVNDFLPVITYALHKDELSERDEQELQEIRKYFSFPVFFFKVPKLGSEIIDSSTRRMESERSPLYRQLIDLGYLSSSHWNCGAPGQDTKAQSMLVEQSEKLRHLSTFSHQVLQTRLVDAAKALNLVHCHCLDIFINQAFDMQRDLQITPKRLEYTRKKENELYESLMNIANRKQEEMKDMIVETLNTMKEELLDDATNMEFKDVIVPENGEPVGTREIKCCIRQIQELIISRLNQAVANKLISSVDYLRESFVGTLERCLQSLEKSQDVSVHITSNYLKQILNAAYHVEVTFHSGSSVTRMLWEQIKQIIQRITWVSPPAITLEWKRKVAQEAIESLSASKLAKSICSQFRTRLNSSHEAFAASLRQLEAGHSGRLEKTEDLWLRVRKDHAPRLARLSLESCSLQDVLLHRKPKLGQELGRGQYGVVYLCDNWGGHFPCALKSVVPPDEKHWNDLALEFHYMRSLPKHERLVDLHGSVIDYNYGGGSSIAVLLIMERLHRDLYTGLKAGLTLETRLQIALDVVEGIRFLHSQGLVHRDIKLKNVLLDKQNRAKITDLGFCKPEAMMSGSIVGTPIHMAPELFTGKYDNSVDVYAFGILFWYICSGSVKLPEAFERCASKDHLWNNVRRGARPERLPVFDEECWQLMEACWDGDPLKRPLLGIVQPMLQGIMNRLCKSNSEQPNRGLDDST

CAMK2D = CAMK2D (Homo sapiens, UniProt Q13557)
KIT(V559D) = KIT(V559D) (Homo sapiens, UniProt P10721, V559D)
BRAF(V600E) = BRAF(V600E) (Homo sapiens, UniProt P15056, V600E)
DYRK2 = biological target: T5, DYRK2 (Homo sapiens, UniProt Q92630)
T5 sequence (Q92630 1-601): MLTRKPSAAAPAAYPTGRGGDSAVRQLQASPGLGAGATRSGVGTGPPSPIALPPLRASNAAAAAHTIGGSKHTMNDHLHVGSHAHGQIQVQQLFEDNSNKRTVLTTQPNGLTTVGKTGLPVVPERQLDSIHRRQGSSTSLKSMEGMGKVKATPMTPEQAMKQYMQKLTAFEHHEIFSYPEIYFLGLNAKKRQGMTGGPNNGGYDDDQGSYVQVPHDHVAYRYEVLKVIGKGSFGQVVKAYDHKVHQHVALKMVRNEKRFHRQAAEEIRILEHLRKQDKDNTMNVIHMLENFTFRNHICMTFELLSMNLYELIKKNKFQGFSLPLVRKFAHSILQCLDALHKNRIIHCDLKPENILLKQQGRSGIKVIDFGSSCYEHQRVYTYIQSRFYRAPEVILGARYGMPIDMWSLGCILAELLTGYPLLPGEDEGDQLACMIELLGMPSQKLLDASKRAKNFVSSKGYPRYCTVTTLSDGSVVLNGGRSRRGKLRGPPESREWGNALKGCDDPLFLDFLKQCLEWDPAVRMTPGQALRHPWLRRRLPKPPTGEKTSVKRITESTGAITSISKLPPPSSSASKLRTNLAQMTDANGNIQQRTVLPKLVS

[1] = read-out: Niraparib (MK-4827) / %Ctrl @ 10000nM
[2] = read-out: Rucaparib / %Ctrl @ 10000nM, binding competition, % of control
[3] = read-out: Olaparib / %Ctrl @ 10000nM
[4] = read-out: Talazoparib (BMN 673) / %Ctrl @ 10000nM

T2 sequence (P07947 whole entry): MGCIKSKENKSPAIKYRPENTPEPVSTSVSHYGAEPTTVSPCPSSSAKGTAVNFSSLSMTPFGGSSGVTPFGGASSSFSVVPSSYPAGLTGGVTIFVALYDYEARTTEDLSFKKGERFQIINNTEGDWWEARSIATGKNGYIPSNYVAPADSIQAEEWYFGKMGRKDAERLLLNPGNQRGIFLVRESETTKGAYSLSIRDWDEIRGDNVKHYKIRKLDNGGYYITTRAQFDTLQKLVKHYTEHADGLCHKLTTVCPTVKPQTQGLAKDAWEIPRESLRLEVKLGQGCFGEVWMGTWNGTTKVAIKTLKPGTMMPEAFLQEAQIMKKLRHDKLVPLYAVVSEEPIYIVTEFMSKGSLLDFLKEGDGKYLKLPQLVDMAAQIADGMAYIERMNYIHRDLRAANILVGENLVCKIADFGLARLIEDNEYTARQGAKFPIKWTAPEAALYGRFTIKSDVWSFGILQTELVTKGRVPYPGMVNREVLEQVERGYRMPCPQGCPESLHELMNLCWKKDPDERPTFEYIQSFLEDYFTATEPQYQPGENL
T3 sequence (P53779 whole entry): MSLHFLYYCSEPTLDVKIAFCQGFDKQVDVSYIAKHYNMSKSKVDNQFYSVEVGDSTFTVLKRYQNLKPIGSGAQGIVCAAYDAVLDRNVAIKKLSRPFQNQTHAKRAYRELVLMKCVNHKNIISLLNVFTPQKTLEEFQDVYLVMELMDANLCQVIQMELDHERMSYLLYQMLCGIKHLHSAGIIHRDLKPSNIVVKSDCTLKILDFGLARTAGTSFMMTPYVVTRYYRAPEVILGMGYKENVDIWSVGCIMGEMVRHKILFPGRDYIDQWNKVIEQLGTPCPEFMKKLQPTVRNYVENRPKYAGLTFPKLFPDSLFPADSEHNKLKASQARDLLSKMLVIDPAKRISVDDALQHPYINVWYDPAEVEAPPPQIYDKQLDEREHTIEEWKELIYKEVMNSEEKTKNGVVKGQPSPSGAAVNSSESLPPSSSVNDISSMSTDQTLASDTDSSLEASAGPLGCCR
Sequence of KIT(V559D) (P10721 whole entry V559D): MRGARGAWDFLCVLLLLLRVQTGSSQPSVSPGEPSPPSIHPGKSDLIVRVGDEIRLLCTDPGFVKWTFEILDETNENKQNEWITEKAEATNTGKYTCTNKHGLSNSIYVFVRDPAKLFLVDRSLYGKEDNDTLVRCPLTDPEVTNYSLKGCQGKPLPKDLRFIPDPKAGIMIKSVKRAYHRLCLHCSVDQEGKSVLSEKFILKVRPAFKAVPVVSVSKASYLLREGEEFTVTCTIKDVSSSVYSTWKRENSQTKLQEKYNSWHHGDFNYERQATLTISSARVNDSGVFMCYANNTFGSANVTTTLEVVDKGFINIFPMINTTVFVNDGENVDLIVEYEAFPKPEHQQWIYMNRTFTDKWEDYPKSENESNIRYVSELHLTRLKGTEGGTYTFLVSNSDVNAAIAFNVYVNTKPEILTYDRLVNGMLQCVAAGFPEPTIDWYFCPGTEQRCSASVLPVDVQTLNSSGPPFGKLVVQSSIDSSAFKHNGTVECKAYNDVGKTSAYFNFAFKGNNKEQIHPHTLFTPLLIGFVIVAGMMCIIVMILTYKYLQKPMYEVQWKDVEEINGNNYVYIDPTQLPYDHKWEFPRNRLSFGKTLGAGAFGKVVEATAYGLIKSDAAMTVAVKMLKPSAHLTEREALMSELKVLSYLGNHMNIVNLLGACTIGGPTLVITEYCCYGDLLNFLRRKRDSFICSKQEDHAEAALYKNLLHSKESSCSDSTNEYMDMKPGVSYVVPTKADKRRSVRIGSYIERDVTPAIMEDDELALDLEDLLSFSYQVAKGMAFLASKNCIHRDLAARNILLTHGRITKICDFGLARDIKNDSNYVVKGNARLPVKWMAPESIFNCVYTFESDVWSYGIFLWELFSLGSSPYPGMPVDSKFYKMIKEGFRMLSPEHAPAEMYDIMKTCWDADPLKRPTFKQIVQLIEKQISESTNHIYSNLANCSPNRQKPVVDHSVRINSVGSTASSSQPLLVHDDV
Sequence of CAMK2D (Q13557 whole entry): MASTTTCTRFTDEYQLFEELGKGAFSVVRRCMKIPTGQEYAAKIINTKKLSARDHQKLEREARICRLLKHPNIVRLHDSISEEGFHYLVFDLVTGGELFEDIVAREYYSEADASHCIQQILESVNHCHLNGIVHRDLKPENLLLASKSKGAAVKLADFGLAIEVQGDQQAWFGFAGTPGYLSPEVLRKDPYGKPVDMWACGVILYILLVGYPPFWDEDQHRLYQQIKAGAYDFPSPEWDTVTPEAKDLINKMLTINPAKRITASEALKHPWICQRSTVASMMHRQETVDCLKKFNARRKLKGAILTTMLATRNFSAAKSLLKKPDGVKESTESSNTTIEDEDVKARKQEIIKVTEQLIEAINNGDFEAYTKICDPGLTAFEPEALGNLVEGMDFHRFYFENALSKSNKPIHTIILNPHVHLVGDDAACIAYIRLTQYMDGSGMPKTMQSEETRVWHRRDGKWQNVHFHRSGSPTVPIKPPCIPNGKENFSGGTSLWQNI
Sequence of BRAF(V600E) (P15056 whole entry V600E): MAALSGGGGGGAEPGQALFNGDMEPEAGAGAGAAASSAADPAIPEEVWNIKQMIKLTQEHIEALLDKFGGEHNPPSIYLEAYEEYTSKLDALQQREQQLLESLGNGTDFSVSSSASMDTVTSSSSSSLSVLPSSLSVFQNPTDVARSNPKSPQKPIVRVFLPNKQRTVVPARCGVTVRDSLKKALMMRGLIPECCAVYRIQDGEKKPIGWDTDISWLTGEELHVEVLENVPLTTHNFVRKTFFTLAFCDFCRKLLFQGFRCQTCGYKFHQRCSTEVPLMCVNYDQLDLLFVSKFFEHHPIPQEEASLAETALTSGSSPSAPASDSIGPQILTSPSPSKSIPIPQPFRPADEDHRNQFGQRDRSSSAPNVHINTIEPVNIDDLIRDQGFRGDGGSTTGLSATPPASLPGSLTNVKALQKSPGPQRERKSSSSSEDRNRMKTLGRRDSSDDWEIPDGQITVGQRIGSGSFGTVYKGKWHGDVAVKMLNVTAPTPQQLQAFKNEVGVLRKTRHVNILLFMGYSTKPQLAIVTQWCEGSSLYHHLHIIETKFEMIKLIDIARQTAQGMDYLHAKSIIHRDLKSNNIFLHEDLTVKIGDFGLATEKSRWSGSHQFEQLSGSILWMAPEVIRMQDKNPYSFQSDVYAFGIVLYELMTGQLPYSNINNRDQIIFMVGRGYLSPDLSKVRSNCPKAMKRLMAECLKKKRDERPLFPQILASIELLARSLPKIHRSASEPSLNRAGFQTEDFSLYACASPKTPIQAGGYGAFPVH

Compound: NC(=O)c1cccc2cn(-c3ccc([C@@H]4CCCNC4)cc3)nc12 [Niraparib]
percent of control binding at 10 µM (GRK3; [1]): 95%
percent of control binding at 10 µM (YES; [1]): 83%
percent of control binding at 10 µM (JNK3; [1]): 88%
percent of control binding at 10 µM (RIPK5; [1]): 89%
percent of control binding at 10 µM (CAMK2D; [1]): 99%
percent of control binding at 10 µM (KIT(V559D); [1]): 90%
percent of control binding at 10 µM (BRAF(V600E); [1]): 100%
percent of control binding at 10 µM (DYRK2; [1]): 54%

percent of control binding at 10 µM (GRK3; [2]): 90%
percent of control binding at 10 µM (YES; [2]): 99%
percent of control binding at 10 µM (JNK3; [2]): 71%
percent of control binding at 10 µM (RIPK5; [2]): 96%
percent of control binding at 10 µM (CAMK2D; [2]): 89%
percent of control binding at 10 µM (KIT(V559D); [2]): 92%
percent of control binding at 10 µM (BRAF(V600E); [2]): 73%
percent of control binding at 10 µM (DYRK2; [2]): 38%
Compound: CNCc1ccc(-c2[nH]c3cc(F)cc4c3c2CCNC4=O)cc1 [Rucaparib]

percent of control binding at 10 µM (GRK3; [3]): 82%
percent of control binding at 10 µM (YES; [3]): 93%
percent of control binding at 10 µM (JNK3; [3]): 86%
percent of control binding at 10 µM (RIPK5; [3]): 100%
percent of control binding at 10 µM (CAMK2D; [3]): 99%
percent of control binding at 10 µM (KIT(V559D); [3]): 100%
percent of control binding at 10 µM (BRAF(V600E); [3]): 87%
percent of control binding at 10 µM (DYRK2; [3]): 99%
Compound: O=C(c1cc(Cc2n[nH]c(=O)c3ccccc23)ccc1F)N1CCN(C(=O)C2CC2)CC1 [Olaparib]

percent of control binding at 10 µM (GRK3; [4]): 81%
percent of control binding at 10 µM (YES; [4]): 92%
percent of control binding at 10 µM (JNK3; [4]): 91%
percent of control binding at 10 µM (RIPK5; [4]): 100%
percent of control binding at 10 µM (CAMK2D; [4]): 99%
percent of control binding at 10 µM (KIT(V559D); [4]): 100%
percent of control binding at 10 µM (BRAF(V600E); [4]): 68%
percent of control binding at 10 µM (DYRK2; [4]): 86%
Compound: Cn1ncnc1[C@H]1c2n[nH]c(=O)c3cc(F)cc(c23)N[C@@H]1c1ccc(F)cc1 [Talazoparib]
